Results as given in publication PMC3776002 (International journal of infectious diseases : IJID : …, 2013).

Assay: Steady-state plasma LPV pharmacokinetics with and without African potato
Format: in vivo, human
Conditions: for CLF (apparent clearance), arithmetic mean (SD): LPV; for AUC: AUCτ; for concentration at 12 h: Ctrough
[1] = plasma LPV, steady state, day 21, LPV/r plus African potato, n = 16
[2] = plasma LPV, expressed as a percentage of the GM of LPV/r alone, n = 16

CLF (apparent clearance), arithmetic mean (SD) (steady state, day 14, LPV/r alone, n = 16): 4.61 (1.56) l/h | CLF (apparent clearance), arithmetic mean (SD) (steady state, day 21, LPV/r plus African potato, n = 16): 4.64 (1.32) l/h | Cmax (human, plasma, oral): 10100 ng/mL | AUC (human, plasma, oral, arithmetic mean (SD), plasma LPV, steady state, day 14, LPV/r 400/100 mg twice daily alone, n = 16): 94400 ng·h/mL | AUC (human, plasma, oral, arithmetic mean (SD), plasma LPV, steady state, day 21, LPV/r 400/100 mg twice daily plus African potato four capsules once daily for 7 days, n = 16): 93200 ng·h/mL | concentration at 12 h (human, plasma, oral, arithmetic mean (SD), plasma LPV, steady state, day 14, LPV/r alone, n = 16): 4850 ng/mL | concentration at 12 h (human, plasma, oral, arithmetic mean (SD), plasma LPV, steady state, day 21, LPV/r plus African potato, n = 16): 4900 ng/mL | concentration at 12 h (human, plasma, oral, geometric mean, plasma LPV, steady state, day 14, LPV/r alone, n = 16): 4130 ng/mL | concentration at 12 h (human, plasma, oral, geometric mean, plasma LPV, steady state, day 21, LPV/r plus African potato, n = 16): 4380 ng/mL | AUCτ, geometric mean (plasma LPV, steady state, day 14, LPV/r alone, n = 16): 90780 ng·h/mL | AUCτ, geometric mean [1]: 89660 ng·h/mL | Cmax, arithmetic mean (SD) [1]: 10.18 (2.25) μg/ml | AUCτ, PE (point estimate of the ratio of geometric means of LPV/r plus African potato and LPV/r) [2]: 98.77% | Cmax, PE (point estimate of the ratio of geometric means of LPV/r plus African potato and LPV/r) [2]: 100.90% | Ctrough, PE (point estimate of the ratio of geometric means of LPV/r plus African potato and LPV/r) [2]: 105.98%
Compound: Cc1cccc(C)c1OCC(=O)N[C@@H](Cc1ccccc1)[C@@H](O)C[C@H](Cc1ccccc1)NC(=O)[C@H](C(C)C)N1CCCNC1=O [LPV, Lopinavir]
